Source: US7985731B2, “Sugar chain added GLP-1 peptide” (Otsuka Chemical Holdings Co., Ltd., priority 2007, dated 2011)
Peptide text beside a SMILES is read from it. * marks the point of attachment. X1 = CC(=O)N[C@@H]1[C@@H](O)[C@H](O[C@@H]2O[C@H](CO)[C@@H](O[C@@H]3O[C@H](CO[C@H]4O[C@H](CO)[C@@H](O)[C@H](O)[C@@H]4O[C@@H]4O[C@H](CO)[C@@H](O[C@@H]5O[C@H](CO[C@]6(C(=O)O)C[C@H](O)[C@@H](NC(C)=O)[C@H]([C@H](O)[C@H](O)CO)O6)[C@H](O)[C@H](O)[C@H]5O)[C@H](O)[C@H]4NC(C)=O)[C@@H](O)[C@H](O[C@H]4O[C@H](CO)[C@@H](O)[C@H](O)[C@@H]4O[C@@H]4O[C@H](CO)[C@@H](O[C@@H]5O[C@H](CO[C@]6(C(=O)O)C[C@H](O)[C@@H](NC(C)=O)[C@H]([C@H](O)[C@H](O)CO)O6)[C@H](O)[C@H](O)[C@H]5O)[C@H](O)[C@H]4NC(C)=O)[C@@H]3O)[C@H](O)[C@H]2NC(C)=O)[C@@H](CO)O[C@H]1NC(=O)C*

Assays:
[1] = system: C57BL/6JJcl mice; assay: Test Example 7: Oral Glucose Tolerance Test (OGTT); format: in vivo; conditions: for effect of suppressing rise in blood-sugar levels in OGTT: 9 nmol/kg intraperitoneal 30 minutes before glucose 1 mg/g oral
Method: After 30 minutes, a glucose solution was orally administered at a dose of 1 mg/g. Blood was collected from the orbits before the glucose administration and 30 minutes, 60 minutes and 120 minutes after the glucose administration. Blood-sugar levels were measured using ACCU-CHEK Aviva (Roche Diagnostics).
After the oral administration of the glucose solution to the mice fasted overnight, blood was collected over time, and blood-sugar levels were measured.
The correlation between the oligosaccharide chain structure and the activity was studied in mouse OGTT.

[2] = system: db/db (BKS.Cg-+Lepr db/+Lepr db/Jcl) mice; assay: Test Example 8: effect of lowering blood-sugar levels in diabetes model mice; format: in vivo; conditions: 9 nmol/kg intraperitoneal
Method: The oligosaccharide chain added GLP-1 peptide prepared in Example 2, 3, 4, 21 or 23 or the GLP-1 prepared in Comparative Example 1 in a PBS solution (9 nmol/10 ml) was intraperitoneally administered at a dose of 10 ml/kg to BKS.Cg−+Lepr^db/+Lepr^db/Jcl mice (10 week old, male). Blood was collected from the orbits before the compound administration and 30 minutes, 60 minutes, 120 minutes, 180 minutes and 300 minutes after the compound administration. Blood-sugar levels were measured using ACCU-CHEK Aviva (Roche Diagnostics).
The db/db (BKS.Cg−+Lepr^db/+Lepr^db/Jcl) mice serving as diabetes model mice have a mutation in a receptor of leptin which is anorexigenic/energy metabolism-accelerating hormone and develops conditions such as obesity or hyperglycemia.
Blood-sugar levels were measured over time, and their effects of lowering blood-sugar levels were compared with that of the GLP-1 without oligosaccharide chain addition of Comparative Example 1.

[3] = target: T1, mouse GLP-1 receptor (Mus musculus, UniProt O35659); assay: Test Example 6: ability to synthesize cAMP in mouse GLP-1 receptor-expressing CHO-K1 cells; format: cell-based
T1 construct: expressed in transfected cells
T1 sequence (O35659 22-463): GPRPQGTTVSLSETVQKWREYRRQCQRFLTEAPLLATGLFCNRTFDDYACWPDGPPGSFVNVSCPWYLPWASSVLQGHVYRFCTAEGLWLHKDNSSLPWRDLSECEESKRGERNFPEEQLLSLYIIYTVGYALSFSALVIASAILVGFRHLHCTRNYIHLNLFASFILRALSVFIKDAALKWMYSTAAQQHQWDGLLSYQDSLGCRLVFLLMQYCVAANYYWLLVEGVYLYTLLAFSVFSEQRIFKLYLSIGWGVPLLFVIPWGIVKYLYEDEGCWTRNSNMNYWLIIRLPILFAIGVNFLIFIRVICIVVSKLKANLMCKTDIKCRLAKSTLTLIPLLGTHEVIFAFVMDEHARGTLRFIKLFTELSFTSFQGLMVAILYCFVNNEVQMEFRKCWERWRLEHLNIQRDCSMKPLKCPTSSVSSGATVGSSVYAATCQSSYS
Method: 1. Construction of Mouse GLP-1 Receptor-Expressing Vector
A mouse GLP1 receptor sense primer (5′-[…]-3′) (SEQ ID NO: 152) and a mouse GLP-1 receptor antisense primer (5′-[…]-3′) (SEQ ID NO: 153) capable of binding to the 5′ and 3′ ends of mouse GLP-1 receptor cDNA were separately synthesized. PCR was performed using Ex Taq polymerase (TaKaRa) with cDNA (Clone ID: 40046534, Open Biosystems) as a template. Specifically, 50 μL in total of reaction solution consisting of 1 μL of template cDNA (10 ng/μL), 4 μL of 2.5 mM dNTPs, 1 μL of primer solution mixtures (each 50 μM), 5 μL of ×10 Ex Taq polymerase Buffer, 0.25 μL of Ex Taq polymerase and 38.75 μL of sterilized water was used and allowed to react by 94° C. for 1 minute; 94° C. for 45 seconds, 55° C. for 1 minute and 72° C. for 2 minutes (35 cycles); and 72° C. for 10 minutes. The PCR reaction product was electrophoresed on 1% agarose gel, and the cDNA fragment was purified using Wizard SV Gel and PCR Clean-up System (Promega) and treated with restriction enzymes (EcoRI and NheI) to obtain mouse GLP-1 receptor cDNA.
To efficiently obtain cells highly expressing a mouse GLP-1 receptor, a pIRES-gfp vector was used as an expression vector. This vector was prepared by inserting, to a vector pEGFP-N1 (Clontech), an IRES gene-containing DNA fragment obtained by the restriction enzyme treatment (Sal I and BamHI) of pIRESpuro2 (Clontech).
The mouse GLP-1 receptor cDNA fragment was inserted to pIRES-gfp to thereby obtain a mouse GLP-1 receptor-expressing vector mGLP-1R/pIRES-gfp. The DNA sequence of the obtained vector was confirmed using ABI3100-Avant (Applied Biosystems).
2. Preparation of Mouse GLP-1 Receptor-Expressing CHO-K1 Cells
CHO-K1 cells (ATCC catalog No. CCL-61) were transfected with the obtained mGLP-1R/pIRES-gfp using FuGENE (registered trademark) (Roche) according to the instruction manual. The transfected CHO-K1 cells were cultured in RPMI1640 medium (Wako Pure Chemical Industries) containing 10% FCS (Hyclone) and penicillin-streptomycin (SIGMA). Drug selection was conducted by the addition of 1.0 mg/ml G418 (Wako Pure Chemical Industries). The drug resistance cells were sorted with a cell sorter (EPICS ALTRA, Beckman Coulter) using a GFP expression level as an index. After the sorting, the limiting dilution method was conducted to obtain cells highly expressing GFP, namely, cells highly expressing a mouse GLP-1 receptor. The obtained cells were used as mouse GLP-1 receptor-expressing CHO-K1 cells in the experiment shown below.
3. Analysis of Agonist Effect of Oligosaccharide Chain Added GLP-1 Peptide (Ability to Synthesize cAMP)
The mouse GLP-1 receptor-expressing CHO-K1 cells prepared in the preceding paragraph 2 were used to evaluate the agonist effect of the oligosaccharide chain added GLP-1 peptide using the ability to synthesize cAMP as an index.
The mouse GLP-1 receptor-expressing CHO-K1 cells were suspended at a concentration of 5×10^5 cells/ml in RPMI1640 medium containing 10% FCS. The cell suspension was seeded at a concentration of 100 μL per well to a flat-bottomed 96-well plate (Falcon) and cultured at 5% CO2 at 37° C. for 16 hours. The culture supernatant was discarded. The oligosaccharide chain added GLP-1 peptide dissolved in Krebs Ringer bicarbonate Buffer containing 2.5 mM glucose was added at a concentration of 100 μL/well and cultured at 37° C. for 30 minutes. The culture supernatant was immediately discarded. The amount of cAMP synthesized in the mouse GLP-1 receptor-expressing CHO-K1 cells was measured using cAMP ELISA Kit (GE Healthcare or Cayman) and used as an index for the agonist effect of the oligosaccharide chain added GLP-1 peptide on mouse GLP-1 receptors.
GLP-1 increases intracellular cAMP concentrations through the binding to its receptor and promotes insulin secretion. Thus, the activity of the oligosaccharide chain added GLP-1 peptide was evaluated using the ability to synthesize cAMP as an index. […]

What does the source list for `CC[C@H](C)[C@H](NC(=O)[C@H](Cc1ccccc1)NC(=O)[C@H](CCC(=O)O)NC(=O)[C@H](CSCC(=O)N[C@@H]1O[C@H](CO)[C@@H](O[C@@H]2O[C@H](CO)[C@@H](O[C@@H]3O[C@H](CO[C@H]4O[C@H](CO)[C@@H](O)[C@H](O)[C@@H]4O[C@@H]4O[C@H](CO)[C@@H](O[C@@H]5O[C@H](CO[C@]6(C(=O)O)C[C@H](O)[C@@H](NC(C)=O)[C@H]([C@H](O)[C@H](O)CO)O6)[C@H](O)[C@H](O)[C@H]5O)[C@H](O)[C@H]4NC(C)=O)[C@@H](O)[C@H](O[C@H]4O[C@H](CO)[C@@H](O)[C@H](O)[C@@H]4O[C@@H]4O[C@H](CO)[C@@H](O[C@@H]5O[C@H](CO[C@]6(C(=O)O)C[C@H](O)[C@@H](NC(C)=O)[C@H]([C@H](O)[C@H](O)CO)O6)[C@H](O)[C@H](O)[C@H]5O)[C@H](O)[C@H]4NC(C)=O)[C@@H]3O)[C@H](O)[C@H]2NC(C)=O)[C@H](O)[C@H]1NC(C)=O)NC(=O)[C@H](C)NC(=O)[C@H](C)NC(=O)[C@H](CCC(N)=O)NC(=O)CNC(=O)[C@H](CCC(=O)O)NC(=O)[C@H](CC(C)C)NC(=O)[C@H](Cc1ccc(O)cc1)NC(=O)[C@H](CO)NC(=O)[C@H](CO)NC(=O)[C@@H](NC(=O)[C@H](CC(=O)O)NC(=O)[C@H](CO)NC(=O)[C@@H](NC(=O)[C@H](Cc1ccccc1)NC(=O)[C@@H](NC(=O)CNC(=O)[C@H](CCC(=O)O)NC(=O)[C@H](C)NC(=O)[C@@H](N)Cc1c[nH]cn1)[C@@H](C)O)[C@@H](C)O)C(C)C)C(=O)N[C@@H](C)C(=O)N[C@@H](Cc1c[nH]c2ccccc12)C(=O)N[C@@H](CC(C)C)C(=O)N[C@H](C(=O)N[C@@H](CCCCN)C(=O)NCC(=O)N[C@@H](CCCNC(=N)N)C(=O)NCC(=O)O)C(C)C` [Example 3, 26Cys GLP-1-disialo]?
efficacy relative to 30Cys GLP-1-disialo and 36Cys GLP-1-disialo at the same dose in OGTT ([1]; 0.9 nmol/kg intraperitoneal): about ½; effect of suppressing rise in blood-sugar levels in OGTT [1]: strong effect of suppressing rise in blood-sugar levels; dose dependence of activity of suppressing rise in blood-sugar levels in OGTT ([1]; doses 0.9 nmol/kg and 0.09 nmol/kg intraperitoneal): dose-dependent activity of suppressing rise in blood-sugar levels; effect of lowering blood-sugar levels in db/db mice ([2]; 10-week-old male mice): strong effect of lowering blood-sugar levels; durability of effect of lowering blood-sugar levels in db/db mice ([2]; up to 300 minutes): effects of lowering blood-sugar levels were slightly weakened over time

Which results are given for `CC[C@H](C)[C@H](NC(=O)[C@H](Cc1ccccc1)NC(=O)[C@H](CCC(=O)O)NC(=O)[C@H](CCCCN)NC(=O)[C@H](C)NC(=O)[C@H](C)NC(=O)[C@H](CCC(N)=O)NC(=O)[C@H](CSCC(=O)N[C@@H]1O[C@H](CO)[C@@H](O[C@@H]2O[C@H](CO)[C@@H](O[C@@H]3O[C@H](CO[C@H]4O[C@H](CO)[C@@H](O)[C@H](O)[C@@H]4O[C@@H]4O[C@H](CO)[C@@H](O[C@@H]5O[C@H](CO[C@]6(C(=O)O)C[C@H](O)[C@@H](NC(C)=O)[C@H]([C@H](O)[C@H](O)CO)O6)[C@H](O)[C@H](O)[C@H]5O)[C@H](O)[C@H]4NC(C)=O)[C@@H](O)[C@H](O[C@H]4O[C@H](CO)[C@@H](O)[C@H](O)[C@@H]4O[C@@H]4O[C@H](CO)[C@@H](O[C@@H]5O[C@H](CO[C@]6(C(=O)O)C[C@H](O)[C@@H](NC(C)=O)[C@H]([C@H](O)[C@H](O)CO)O6)[C@H](O)[C@H](O)[C@H]5O)[C@H](O)[C@H]4NC(C)=O)[C@@H]3O)[C@H](O)[C@H]2NC(C)=O)[C@H](O)[C@H]1NC(C)=O)NC(=O)[C@H](CCC(=O)O)NC(=O)[C@H](CC(C)C)NC(=O)[C@H](Cc1ccc(O)cc1)NC(=O)[C@H](CO)NC(=O)[C@H](CO)NC(=O)[C@@H](NC(=O)[C@H](CC(=O)O)NC(=O)[C@H](CO)NC(=O)[C@@H](NC(=O)[C@H](Cc1ccccc1)NC(=O)[C@@H](NC(=O)CNC(=O)[C@H](CCC(=O)O)NC(=O)[C@H](C)NC(=O)[C@@H](N)Cc1c[nH]cn1)[C@@H](C)O)[C@@H](C)O)C(C)C)C(=O)N[C@@H](C)C(=O)N[C@@H](Cc1c[nH]c2ccccc12)C(=O)N[C@@H](CC(C)C)C(=O)N[C@H](C(=O)N[C@@H](CCCCN)C(=O)NCC(=O)N[C@@H](CCCNC(=N)N)C(=O)NCC(=O)O)C(C)C` [Example 2, 22Cys GLP-1-disialo] (H-HAEGTFTSDVSSYLEC(X1)QAAKEFIAWLVKGRG-OH)?
cAMP synthesis activity compared with GLP-1 (in words) [3]: activity equal to or more than that of the GLP-1; effect of suppressing rise in blood-sugar levels in OGTT [1]: strong effect of suppressing rise in blood-sugar levels
